ChEMBL document CHEMBL3826966, “A chromatography-free isolation of rohitukine from leaves of Dysoxylum binectariferum: Evaluation for in vitro cytotoxicity, Cdk inhibition and physicochemical properties” (Bioorg Med Chem Lett, 2016)

Columns and labels:
Type in all cases: physicochemical
[1] = Partition coefficient, logP of the compound in water/PBS buffer at 25 degC by OECD guidelines based method; conditions: octanol/water
[2] = Partition coefficient, logP of the compound in water/PBS buffer at pH 7.4 at 25 degC after 20 mins by shake flask method
[3] = Distribution coefficient, logD of the compound in water/PBS buffer at pH 7.4 at 25 degC after 20 mins by shake flask method
[4] = Ionization constant, pKa of the compound in buffer at pH 1 to 13 by uV spectrophotometry
[5] = Ionization constant, pKa of the compound

CN1CC[C@H](c2c(O)cc(O)c3c(=O)cc(-c4ccccc4Cl)oc23)[C@H](O)C1 [ALVOCIDIB]
logP [1]: 1.01
logD at 20 min [2]: 0.21
logD at 20 min [3]: 1.24
pKa [4]: 5.56
pKa [5]: 5.68
